# Reference: patent US8470384B2, “Oxalamide derivative as umami flavouring agent” (Givaudan S.A., priority 2010, dated 2013)
# Legend:
# [1] = test system: professional panel composed of 2 women and 3 men; experiment: Tasting of 0.3% NaCl solutions by a professional panel (Example 2); assay type: in vivo, human
# Procedure: (§1) Two solutions were prepared:
# A—a solution of 0.3% NaCl and 0.05% MSG
# B—a solution of 0.3% NaCl and 3 ppm of N1-geranyl-N2-(2-(pyridin-2-yl)ethyl)oxalamide.
# The samples were tasted by a professional panel composed of 2 women and 3 men aged between 30 and 60. The panel agreed that both solutions tasted umami.
# [2] = test system: professional panel composed of 2 women and 3 men; experiment: Tasting of NaCl/MSG/ribonucleotide solutions with reduced MSG by a professional panel (Example 3); assay type: in vivo, human; conditions: solution B (0.5% NaCl, 0.05% MSG, 0.010% ribonucleotide mixture, 1.5 ppm compound) vs solution A (0.5% NaCl, 0.15% MSG, 0.025% ribonucleotide mixture)
# Procedure: as §1
# A—a solution of 0.5% NaCl, 0.15% MSG and 0.025% Ribonucleotide mixture
# B—a solution of 0.5% NaCl, 0.05% MSG, 0.010% Ribonucleotide mixture and 1.5 ppm of N1-geranyl-N2-(2-(pyridin-2-yl)ethyl)oxalamide.
# The samples were tasted by a professional panel composed of 2 women and 3 men aged between 30 and 60.
# [3] = General finding on umami flavour quality; conditions: very low dosages; in contrast to many other non-MSG umami flavourants
# [4] = solution B (0.3% NaCl, 3 ppm compound) vs solution A (0.3% NaCl, 0.05% MSG)
smiles,measurement,setting,value
"N[C@@H](CCC(=O)O)C(=O)[O-].[Na+] [MSG, monosodium glutamate, reference compound]",umami taste,[1]; solution A: 0.3% NaCl and 0.05% MSG,tasted umami
CC(C)=CCC/C(C)=C/CNC(=O)C(=O)NCCc1ccccn1 [N1-geranyl-N2-(2-(pyridin-2-yl)ethyl)oxalamide],further taste attributes compared with solution A,[1]; [4],more succulence and sweetness and had more lingering savoury notes
same,umami strength compared with solution A,[1]; [4],slightly stronger umami
same,umami taste,[1]; solution B: 0.3% NaCl and 3 ppm of compound,tasted umami
same,umami strength compared with solution A,[2],equal umami strength
CC(C)=CCC/C(C)=C/CNC(=O)C(=O)NCCc1ccccn1 [the Umami Compound],umami flavour and its quality,[3],"clean, non-artificial taste"
